{"source": "patent US9534259B2", "about": "“DOT1 histone methyltransferases as a target for identifying therapeutic agents for leukemia” (The University of North Carolina at Chapel Hill, priority 2003, dated 2017)", "key": {"[1]": {"tested_on": "CRM1-mediated nuclear export of hDOT1L NESs fused with EGFP", "type": "cell-based, human", "conditions": "20 nM, eight hours after treatment, U2OS cells, FIG. 10E", "experimental": "To further characterize the nuclear export ability of the three NESs identified, it was determined whether the NESs were involved in active nuclear export mediated by the CRM1 (chromosomal region maintenance) pathway. CRM1 was initially identified as a S. pombe protein whose mutation affects higher order chromosome structure (Adachi and Yanagida (1989) J. Cell Biol. 108:1195-1207). Subsequent studies indicate that CRM1 is an export receptor for Leucine-rich nuclear export signals (Fornerod, et al. (1997) Cell 90:1051-1060; Ossareh-Nazari, et al. (1997) Science 278:141-144; Stade, et al. (1997) Cell 90:1041-1050). […] To investigate the effect of LMB treatment on the nuclear export ability of the NESs, U2OS cells were transfected with constructs encoding each of the three NESs fused with EGFP in the presence or absence of 20 nM of LMB. Eight hours after LMB treatment, green fluorescence was observed under a microscope in living cells."}, "[2]": {"tested_on": "proteasome (stability of ubiquitinated FLAG-Tat and FLAG-hDOT1L)", "assay": "In vivo ubiquitination assay in 293T cells with proteasome inhibitor", "type": "cell-based, human", "set-up": "dose or concentration left out as unconfirmed", "conditions": "HA-Ub co-expressed", "experimental": "pcDNA3b-FLAG®-hDOT1L and pcDNA3b-FLAG®-Tat were transfected to 293T cells with or without pHA-Ubiquitin (Ub) by using FUGENE™ 6 transfection reagent (Roche Diagnostics, Indianapolis, Ind.). Twenty-four hours after transfection, MG132 was added at the final concentration of […], and the cells were cultured for […]. Cells were then lysed with lysis buffer (50 mM Tris-HCl, pH 7.5, 0.5 mM EDTA, 1% SDS, and 1 mM DTT), and boiled for 10 minutes before centrifugation at 14,000 rpm for 10 minutes. The supernatant was diluted by 10-fold with NP40 lysis buffer (50 mM Tris-HCl, pH 7.5, 150 mM NaCl, 0.1% NP40, 50 mM NaF, 10% glycerol, 1 mM DTT, and 1 mM PMSF), and incubated with […] of FLAG® (M2) antibody for 4 hours at 4° C. Protein G beads were then added and incubated further for one hour. The beads were washed three times with lysis buffer containing 0.5% of NP40 before eluting the protein with SDS sample buffer for SDS-PAGE analysis.\nProtein ubiquitination is the major pathway for rapid protein degradation (Pickart (2001) Annu. Rev. Biochem 70:503-533). Toward this end, we asked whether hDOT1L is subjected to ubiquitination. We transfected 293T cells with a construct encoding FLAG®-hDOT1L with or without co-transfection of a construct encoding HA-tagged ubiquitin. […]"}, "[3]": {"tested_on": "hDOT1L binding to HeLa mono-nucleosomes", "assay": "Gel mobility shift assay (mono-nucleosome binding) with competitor peptide", "set-up": "species or system human", "conditions": "HeLa mono-nucleosomes 1.5 μM", "experimental": "Different amount of recombinant hDOT1L proteins were incubated with HeLa mono-nucleosomes (1.5 μM) under the same conditions as those in the histone methyltransferase assay, except that SAM is omitted. Following incubation for 1 hour at 30° C., samples were resolved in a 1.8% agarose gel and visualized under UV by ethidium bromide staining.\nWe next examined mono-nucleosome binding of hDot1(1-416) and several of its truncation variants by gel mobility shift assays (GSMA). […] Consistent with this, we could detect strong, but apparently non-sequence specific, binding of hDOT1L(1-416) with DNA extracted from mono-nucleosomes. To further probe the nature of hDOT1L-nucleosome interaction, we used a 21-residue highly charged peptide, C-RS10, containing 10 tandem repeats of arginine and serine as a competitor in our nucleosome binding and HMTase assays."}, "hDOT1L(1-416)": {"biological_target": "T1, hDOT1L(1-416) (Homo sapiens, UniProt Q8TEK3)", "T1 construct": "The plasmid expressing the first 416 residues of hDOT1L, pGEX-KG/hDOT1L(1-416); GST (N, cleaved yes); made in house; host or cells: E. coli", "T1 sequence (Q8TEK3 1-416)": "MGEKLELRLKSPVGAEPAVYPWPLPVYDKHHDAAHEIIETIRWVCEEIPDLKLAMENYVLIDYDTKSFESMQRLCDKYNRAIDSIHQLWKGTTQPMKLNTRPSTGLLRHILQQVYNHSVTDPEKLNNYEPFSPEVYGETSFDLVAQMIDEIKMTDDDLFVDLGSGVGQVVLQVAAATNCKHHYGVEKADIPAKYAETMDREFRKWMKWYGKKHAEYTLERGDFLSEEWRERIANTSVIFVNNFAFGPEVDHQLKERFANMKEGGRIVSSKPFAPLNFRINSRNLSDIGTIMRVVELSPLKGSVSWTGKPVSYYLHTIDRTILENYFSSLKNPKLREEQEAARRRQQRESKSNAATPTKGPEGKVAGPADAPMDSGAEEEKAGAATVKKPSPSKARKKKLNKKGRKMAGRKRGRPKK", "assay": "Histone methyltransferase assay with peptide competition", "type": "biochemical", "conditions": "1.5, 15 or 150 μM peptide; oligo-nucleosome substrate; FIG. 6D lanes 1-4", "experimental": "(§1) Histone methyltransferase assay was performed using established methods (Wang, et al. (2001) Science 293:853-857). Oligo-nucleosomes purified from HeLa cells or chicken blood cells were quantified and equal concentrations were used in each assay. Briefly, recombinant hDOT1L proteins (0.75 μM) were incubated with oligo-nucleosomes (1.5 μM) in reactions containing 20 mM Tris-HCl (pH 8.0), 4 mM EDTA, 1 mM PMSF, 0.5 mM DTT, and 0.5 μL ^3H-SAM (15 Ci/mM; NEN™ Life Science Products) for 1 hour at 30° C. For peptide competition, 1.5 μM, 15 μM, or 150 μM of positively charged C-RS10 peptide ([…] SEQ ID NO:20) were added to reactions. Reactions were stopped by addition of 7 μL of 5×SDS loading buffer and proteins were separated in an 18% SDS-PAGE. Following stain and destain of COMMASSIE® Blue, gels were treated with Rapid Autoradiography Enhancer (NEN™ Life Science Products, Boston Mass.) for 40 minutes, dried, and exposed to X-ray films. For quantitation, gel slices were excised and counted with scintillation counting. Two independent experiments were performed at the same time and average ^3H (CPM) values were used in the figures."}, "hDOT1L Δ(376-390)": {"biological_target": "T2, hDOT1L Δ(376-390) (Homo sapiens, UniProt Q8TEK3, DEL376-390)", "T2 construct": "GST (N, cleaved yes); made in house; host or cells: E. coli", "T2 sequence (Q8TEK3 with tags, fused parts or gaps DEL376-390)": "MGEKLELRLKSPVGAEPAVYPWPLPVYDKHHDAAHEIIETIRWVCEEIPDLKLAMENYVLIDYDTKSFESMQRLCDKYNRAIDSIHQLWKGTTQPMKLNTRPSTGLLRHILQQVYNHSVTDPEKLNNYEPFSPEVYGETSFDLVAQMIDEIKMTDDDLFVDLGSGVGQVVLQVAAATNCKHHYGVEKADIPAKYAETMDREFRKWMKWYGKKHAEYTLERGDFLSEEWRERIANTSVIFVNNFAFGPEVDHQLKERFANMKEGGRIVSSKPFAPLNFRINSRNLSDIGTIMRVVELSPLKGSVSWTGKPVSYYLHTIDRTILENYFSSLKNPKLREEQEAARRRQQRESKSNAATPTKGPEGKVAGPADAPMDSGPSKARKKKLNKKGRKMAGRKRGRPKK", "assay": "Histone methyltransferase assay with peptide competition", "type": "biochemical", "conditions": "1.5, 15 or 150 μM peptide; oligo-nucleosome substrate; FIG. 6D lanes 5-8", "experimental": "as §1"}}, "note": "Entries after “also recorded” stand apart in the source; their conditions may differ. Ends that are not written are not given here. Peptide text beside a SMILES is read from it. * marks the point of attachment. Cbz = O=C(OCc1ccccc1)*", "data": [{"compound": "CCC(=C/[C@H](C)C/C=C/C(C)=C/[C@@H](C)C(=O)[C@@H](C)[C@H](O)[C@@H](C)C/C(C)=C/C(=O)O)/C=C/[C@@H]1OC(=O)C=C[C@@H]1C", "note": "[LMB, Leptomycin B]", "values": [{"measurement": "Effect on nuclear export by NES1, NES2, NES3 fused with EGFP", "setting": "[1]", "value": "prevented nuclear export by all the three NESs; also recorded: can be blocked"}]}, {"compound": "CC(C)C[C@@H](C=O)NC(=O)[C@H](CC(C)C)NC(=O)[C@H](CC(C)C)NC(=O)OCc1ccccc1", "note": "[MG132] (Cbz-Leu-Leu-Leu-aldehyde)", "values": [{"measurement": "Stabilization of ubiquitinated FLAG-hDOT1L", "setting": "[2]; FIG. 8A lanes 4 and 5", "value": "did not appear to stabilize"}, {"measurement": "Stabilization of ubiquitinated Tat", "setting": "[2]; FIG. 8A lanes 6 and 7", "value": "successfully stabilized ubiquitinated Tat"}]}, {"compound": "CRSRSRSRSRSRSRSRSRSRS", "values": [{"measurement": "Effect of peptide on mono-nucleosome migration in GSMA", "setting": "[3]", "value": "prevented mono-nucleosomes from entering the gel well"}, {"measurement": "HMTase activity of hDOT1L(1-416) in presence of competitor peptide", "setting": "hDOT1L(1-416)", "value": "effectively competed"}, {"measurement": "HMTase activity of Δ(376-390) in presence of competitor peptide", "setting": "hDOT1L Δ(376-390)", "value": "effectively competed"}]}]}
